Data on 19 molecules can be found in patent publication US11078161B2, “Rock-inhibiting compound and uses thereof” (HITGEN INC., priority 2017, dated 2021).

In general, IC50 refers to the concentration at which inhibition is half-maximal.

One assay concerns the target ROCK2 (Homo sapiens, UniProt O75116). As to the kind of experiment: Measurement of inhibitory activity against ROCK2 (ADP-Glo, S6K substrate). The assay is classed as biochemical. The following applies: read-out: ROCK2 (IC50 class). The source says: ROCK2 was capable of phosphorylating a substrate of polypeptide S6K (KRRRLASLR) by converting ATP to ADP. An ADP-Glo™ reagent was adopted to terminate this reaction and consume the remaining ATP. Moreover, a kinase detection reagent was introduced to ensure that ATP was further converted into a luminescent signal by an Ultra-Glo™ luciferase while convening ADP into ATP, allowing the kinase activity to be positively correlated with the intensity of the luminescent signal.
The inhibitory activity against ROCK2 was determined as follows.
(1) A detection buffer containing 40 mM Tris (pH 7.5), 20 mM MgCl2, 0.1% BSA(w/v) and 50 μM DTT was prepared.
(2) 12 μL of 2.5×0.1 μg/mL ROCK2 solution was added to a 96-well PCR plate.
(3) The 96-well PCR plate was added with 6 μL of a 6× compound solution and pre-incubated at 25° C. for 10 min.
(4) Then the 96-well PCR plate was further added with 12 μL of a mixed solution of a 2.5×37.5 μg/mL S6K substrate solution and a 12.5 μM ATP solution, and incubated at 30° C. for 60 min.
(5) 25 μL of the reaction mixture was transferred to a new 96-well PCR plate, mixed with 25 μL of the ADP-Glo™ reagent uniformly and incubated at 25° C. for 40 min to terminate the reaction.
(6) After the reaction was terminated, 40 μL of the reaction mixture was transferred to another 96-well PCR plate, mixed with 40 μL of the kinase detection reagent uniformly and incubated at 25° C. for 40 min.
(7) The luminescence signal was recorded for the calculation of the inhibitory rate.
The inhibitory activity of the above-prepared compounds against the ROCK2 was measured according to the above process, and the results were shown in Table 1, in which the compounds were ranked according to the IC50 value. Specifically, “+” indicated an IC50 value greater than 500 nM; “++” indicated an IC50 value less than 500 nM and greater than 100 nM; and “+++” indicated an IC50 value less than 100 nM.
In general terms: In ADP-Glo the light output rises with the ADP produced.

For assay [1], the system named is phosphorylation of the myosin light chain (T18/S19) of smooth muscle cells A7r5. As to the kind of experiment: Detection of myosin light chain phosphorylation by In-Cell Western Blotting. It counts as cell-based. The conditions noted are these: rat smooth muscle cells A7r5, 1 h incubation in serum-free medium; read-out: A7r5 (IC50 class, inhibition of myosin light chain phosphorylation). On the procedure:
ROCK2 was capable of altering the cytoskeleton by phosphorylating two amino acid sites (T18 and S19) on the myosin light chain. Smooth muscle cells A7r5 of rats were selected, inoculated into a 96 well black plate with a transparent bottom and cultured with DMEM containing 10% FBS. After cultured overnight, the cells were treated by serum starvation for 4 h and then incubated with respective compounds in serum-free medium for 1 h. The phosphorylation level of the myosin light chain was detected by In-Cell Western Blotting using a phspho-MLC-T18/S19-specific antibody and a secondary detection antibody. The untreated cells were used as positive control; the cells without undergoing primary antibody incubation were used as negative control; and total intracellular protein was used as an internal reference. The results were fitted by a non-linear regression curve with varying slope using GraphPad Prism 5.01 software to determine an IC50 value.
The detection of the inhibitory activity of the above-prepared compounds against the phosphorylation of the myosin light chain of smooth muscle cells A7r5 was performed according to the above process. The results were shown in Table 2, where the compounds were ranked according to the IC50 value.

In assay [2] the test system is New Zealand rabbits with normal intraocular pressure. As to the kind of experiment: Animal experiment, normal intraocular pressure model. The assay is classed as in vivo. The following applies: normal IOP rabbits, 50 μL to the right eye, IOP at 0-10 h. On the procedure:
24 male New Zealand rabbits were averagely divided into 4 groups, and were randomly assigned to respective groups using a computer randomized algorithm involving weight. From […] before the experiment, all rabbits were required to be trained to adapt to the operation of intraocular pressure (IOP) measurement, and the training was performed 3 times a day with an interval of about 3 h. The intraocular pressure was measured using a TonoVet tonometer, specifically, individual animals were fixed and the eye to be tested was placed at a position perpendicular to the TonoVet tonometer. The IOP should be measured at least 3 times in each operation until the reading became stable. The results from the last three stable measurements (±3 mmHg) were recorded and averaged to be used as the final IOP value. Respective compounds were weighed and dissolved with normal saline to the desired concentration. At the beginning of the experiment, individual compounds of the invention, reference compound K115 or negative control solvent (50 μL) were administered to the right eye of each animal, and the left eye of each animal was treated by normal saline. The IOP was measured at time points Pre (0 h), 1 h, 2 h, 4 h, 6 h, 8 h and 10 h after the administration of drugs, and the data obtained at respective time points was analyzed by student-t test. The curve of IOP over time was analyzed using the ANOVA test, where a P value of less than 0.05 will be considered to be of statistical significance and the data was expressed by mean±standard deviation.

Assay [3] deals with New Zealand rabbits with high intraocular pressure. As to the kind of experiment: Animal experiment, high intraocular pressure monocular model. The conditions noted are these: high IOP rabbits, 50 μL per eye three times a day (0, 3rd, 6th h), IOP at 0-8 h. It counts as in vivo. The protocol:
10 male New Zealand rabbits were averagely divided into 2 groups and were randomly assigned to respective groups using a computer randomized algorithm involving weight. From 3 days to 1 day before the experiment, all rabbits were required to be trained to adapt to the operation of intraocular pressure (IOP) measurement, and the training was performed 3 times a day with an interval of about 3 h. The intraocular pressure was measured using a TonoVet tonometer, specifically, individual animals were fixed and the eye to be tested was placed at a position perpendicular to the TonoVet tonometer. The IOP should be measured at least 3 times in each operation until the reading became stable. The results from the last three stable measurements (±3 mmHg) were recorded and averaged to be used as the final IOP value. Respective compounds were weighed and dissolved with normal saline to the desired concentration. Before the induction of high intraocular pressure, the intraocular pressure values of both eyes were measured and used as the basic intraocular pressure value. […] The IOP was measured respectively 0, 1, 2, 3, 4, 6 and 8 h after the injection. The results obtained at individual time points were analyzed by student-t test, and the variation curve of IOP over time was analyzed using ANOVA test. […]

The next assay deals with hypertensive model rats. The following applies: cited from earlier work.

ROCK2, sequence (O75116 whole entry): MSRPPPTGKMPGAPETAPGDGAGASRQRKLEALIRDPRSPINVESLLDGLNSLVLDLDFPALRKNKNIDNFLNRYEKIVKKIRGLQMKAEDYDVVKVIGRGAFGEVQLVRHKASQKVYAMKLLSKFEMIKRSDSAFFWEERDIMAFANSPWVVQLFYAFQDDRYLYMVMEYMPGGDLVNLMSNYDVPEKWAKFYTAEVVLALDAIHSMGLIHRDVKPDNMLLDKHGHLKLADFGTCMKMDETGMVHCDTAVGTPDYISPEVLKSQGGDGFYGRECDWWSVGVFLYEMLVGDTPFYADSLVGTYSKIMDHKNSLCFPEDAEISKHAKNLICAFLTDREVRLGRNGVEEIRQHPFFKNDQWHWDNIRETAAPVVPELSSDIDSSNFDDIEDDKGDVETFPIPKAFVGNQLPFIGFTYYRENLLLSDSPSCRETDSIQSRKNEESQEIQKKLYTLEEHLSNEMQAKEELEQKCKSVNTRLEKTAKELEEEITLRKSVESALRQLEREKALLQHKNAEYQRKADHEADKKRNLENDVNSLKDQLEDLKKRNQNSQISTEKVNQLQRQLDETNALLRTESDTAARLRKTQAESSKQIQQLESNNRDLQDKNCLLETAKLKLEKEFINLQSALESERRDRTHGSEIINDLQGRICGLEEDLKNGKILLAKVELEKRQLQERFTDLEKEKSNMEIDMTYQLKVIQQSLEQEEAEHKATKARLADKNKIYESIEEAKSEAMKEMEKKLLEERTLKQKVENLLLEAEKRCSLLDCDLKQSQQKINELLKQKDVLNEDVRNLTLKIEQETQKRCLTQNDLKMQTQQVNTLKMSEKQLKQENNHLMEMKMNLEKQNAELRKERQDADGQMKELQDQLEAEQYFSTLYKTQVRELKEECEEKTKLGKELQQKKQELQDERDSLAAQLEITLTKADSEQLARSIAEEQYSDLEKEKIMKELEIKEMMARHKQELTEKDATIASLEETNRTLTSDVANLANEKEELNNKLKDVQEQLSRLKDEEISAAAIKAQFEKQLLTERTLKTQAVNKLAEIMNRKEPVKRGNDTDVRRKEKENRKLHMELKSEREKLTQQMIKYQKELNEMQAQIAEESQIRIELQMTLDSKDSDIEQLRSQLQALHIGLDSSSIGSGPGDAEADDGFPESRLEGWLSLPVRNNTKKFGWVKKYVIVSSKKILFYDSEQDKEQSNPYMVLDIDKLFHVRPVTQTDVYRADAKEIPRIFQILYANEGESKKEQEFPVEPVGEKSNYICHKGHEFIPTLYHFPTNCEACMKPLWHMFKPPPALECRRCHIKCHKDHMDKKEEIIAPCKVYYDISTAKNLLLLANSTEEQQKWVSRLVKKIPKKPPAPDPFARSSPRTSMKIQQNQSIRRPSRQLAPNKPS

Turning to `NC[C@@H](NC(=O)c1ccc2cnccc2c1)c1ccccc1` [Compound 1, N—((S)-2-amino-1-phenyl-ethyl)isoquinoline-6-carboxamide], the 50% inhibitory concentration (IC50) on ROCK2 is less than 100 nM; in assay [1] it was 250 to 1000 nM. For `NC[C@@H](NC(=O)c1ccc2cnccc2c1)c1cccc(Br)c1` [Compound 2, (S)—N-(2-amino-1-(3-bromophenyl)ethyl)isoquinoline-6-carboxamide], in that order: less than 100 nM and less than 250 nM. `NC[C@@H](NC(=O)c1ccc2cnccc2c1)c1ccc(CO)cc1` [Compound 3, (S)—N-(2-amino-1-(4-(hydroxymethyl)phenyl)ethyl)isoquinoline-6-formamide]: the IC50 on ROCK2 was in the range of 100 to 500 nM. As for `Cc1ccc(C(=O)OCc2ccc([C@@H](CN)NC(=O)c3ccc4cnccc4c3)cc2)c(C)c1` [Compound 4, (S)-4-(2-amino-1-(isoquinoline-6-formamido)ethyl)benzyl 2,4-dimethylbenzoate], the IC50 at ROCK2 was 100 to 500 nM; in assay [1] it was more than 1000 nM. For `CN(C)C[C@@H](NC(=O)c1ccc2cnccc2c1)c1ccccc1` [Compound 5, N-((1S)-2-(dimethylamino)-1-phenyl-ethyl)isoquinoline-6-formamide], in assay [2], the “acting time compared to K115” value is given as “a longer acting time”. Also, in assay [2], the “intraocular pressure-reducing activity compared to K115” value is recorded as “a similar intraocular pressure-reducing activity”. Moreover, the IC50 at ROCK2 is less than 100 nM; in assay [1] it was 250 to 1000 nM.

`NCCC(NC(=O)c1ccc2cnccc2c1)c1cccc(Cl)c1` (stereo not shown) [Compound 6, N-(3-amino-1-(3-chlorophenyl)propyl)isoquinoline-6-carboxamide]: the figures for the IC50 (on ROCK2; in assay [1]) were less than 100 nM and less than 250 nM, respectively.

For the molecule `CCOC(=O)c1cc(-c2cccc(C(CCN)NC(=O)c3ccc4cnccc4c3)c2)cs1` (stereo not shown) [Compound 7, ethyl 4-(3-(3-amino-1-(isoquinoline-6-formamide)propyl)phenyl)thiophene-2-carboxylate], the half-maximal inhibitory concentration (IC50) on ROCK2 was less than 100 nM; in assay [1], 250 to 1000 nM. For `CN(C)CCC(NC(=O)c1ccc2cnccc2c1)c1ccccc1` (stereo not shown) [Compound 8, N-(3-(dimethylamino)-1-phenyl-propyl)isoquinoline-6-formamide], in that order: less than 100 nM and more than 1000 nM.

Take `O=C(NC(c1ccccc1)C1CNC1)c1ccc2cnccc2c1` (stereo not shown) [Compound 9, N-(azetidin-3-yl-benzyl)isoquinoline-6-carboxamide]: the IC50 on ROCK2 is less than 100 nM; in assay [1] it was 250 to 1000 nM. Turning to `CN1CC(C(NC(=O)c2ccc3cnccc3c2)c2ccccc2)C1` (stereo not shown) [Compound 10, N-((1-methylazetidin-3-yl)-benzyl)isoquinoline-6-carboxamide], the IC50 on ROCK2 is less than 100 nM; in assay [1], 250 to 1000 nM. As to `O=C(N[C@H](c1ccccc1)[C@@H]1CCNC1)c1ccc2cnccc2c1` [Compound 11a, N—((S)-phenyl-((R)-pyrrolidin-3-yl)methyl)isoquinoline-6-carboxamide], in assay [2], the “acting time compared to K115” value was “a longer acting time” and the “intraocular pressure-reducing activity compared to K115” value was “a similar intraocular pressure-reducing activity”. Also, on ROCK2, the IC50 was less than 100 nM. Further, the “effect on alleviating high intraocular pressure” value in assay [3] was “a good effect on alleviating high intraocular pressure”. Further, the IC50 in assay [1] lay in the range of 250 to 1000 nM.

For `O=C(N[C@@H](c1ccccc1)[C@@H]1CCNC1)c1ccc2cnccc2c1` [Compound 11b, N—((R)-phenyl-((R)-pyrrolidin-3-yl)methyl)isoquinoline-6-carboxamide], the IC50 on ROCK2 was less than 100 nM. The same measure, in the same setting: the figure for `CN1CC[C@@H]([C@@H](NC(=O)c2ccc3cnccc3c2)c2ccccc2)C1` [Compound 12, N—((R)—((R)-1-methylpyrrolidin-3-yl)(phenyl)methyl)isoquinoline-6-carboxamide] is less than 100 nM.

Consider `CN1CC[C@@H]([C@H](NC(=O)c2ccc3cnccc3c2)c2ccccc2)C1` [Compound 13, N—((S)—((R)-1-methylpyrrolidin-3-yl)(phenyl)methyl)isoquinoline-6-carboxamide], for which the IC50 on ROCK2 is less than 100 nM; in assay [1], 250 to 1000 nM.

For the molecule `O=C(N[C@H](c1ccccc1)[C@H]1CCNC1)c1ccc2cnccc2c1` [Compound 14a, N—((S)-phenyl-((S)-pyrrolidin-3-yl)methyl)isoquinoline-6-carboxamide], the IC50 at ROCK2 is 100 to 500 nM. Still for that read-out and setting: the same measure for `O=C(N[C@@H](c1ccccc1)[C@H]1CCNC1)c1ccc2cnccc2c1` [Compound 14b, N—((R)-phenyl-((S)-pyrrolidin-3-yl)methyl)isoquinoline-6-carboxamide]: less than 100 nM. Regarding `COc1cccc([C@@H](CN(C)C)NC(=O)c2ccc3cnccc3c2)c1` [Compound 15, N—((S)-2-(dimethylamino)-1-(3-methoxyphenyl)ethyl)isoquinoline-6-carboxamide], the figures for the IC50 (at ROCK2; in assay [1]) were less than 100 nM and 250 to 1000 nM, respectively.

Take `CN(C)C[C@@H](NC(=O)c1ccc2cnccc2c1)c1cccc(Cl)c1` [Compound 16, N—((S)-2-(dimethylamino)-1-(3-chlorophenyl)ethyl)isoquinoline-6-carboxamide]: the IC50 in assay [1] lay in the range of 250 to 1000 nM. Consider `C[C@@H](N)[C@H]1CC[C@H](C(=O)Nc2ccncc2)CC1` [Compound Y-27632], for which, in the assay with hypertensive model rats (control rats), the “blood pressure of control rats” value is given as “fails to show significant effects on the blood pressure”. Also, in the assay with hypertensive model rats (spontaneous, renal and deoxycorticosterone acetate-induced hypertension), the “blood pressure of hypertensive model rats” value was “significantly lowering the blood pressure”.
